Experimental data: patent publication US10662229B2, “Spider venom peptides and methods of use for modulating sodium channels” (priority 2016, dated 2020)

Key:
hNav1.5 = biological target: T1, hNav1.5 (Homo sapiens, UniProt Q14524); assay: FLIPR membrane potential assay, hNav1.5; assay type: cell-based
T1 construct: host or cells: HEK293
Summary of the method: (§1)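 Readout is a FLIPR^TETRA membrane potential signal sampled every second for 300 s after agonists are added. HEK293 cells stably carrying the human channel are loaded with red membrane potential dye at 37° C for 30 min.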

hNav1.3 = biological target: T2, hNav1.3 (Homo sapiens, UniProt Q9NY46); assay: Automated patch clamping (QPatch-16), hNav1.3; assay type: cell-based; conditions: mean±SEM
T2 construct: host or cells: HEK293
T2 sequence (Q9NY46 whole entry): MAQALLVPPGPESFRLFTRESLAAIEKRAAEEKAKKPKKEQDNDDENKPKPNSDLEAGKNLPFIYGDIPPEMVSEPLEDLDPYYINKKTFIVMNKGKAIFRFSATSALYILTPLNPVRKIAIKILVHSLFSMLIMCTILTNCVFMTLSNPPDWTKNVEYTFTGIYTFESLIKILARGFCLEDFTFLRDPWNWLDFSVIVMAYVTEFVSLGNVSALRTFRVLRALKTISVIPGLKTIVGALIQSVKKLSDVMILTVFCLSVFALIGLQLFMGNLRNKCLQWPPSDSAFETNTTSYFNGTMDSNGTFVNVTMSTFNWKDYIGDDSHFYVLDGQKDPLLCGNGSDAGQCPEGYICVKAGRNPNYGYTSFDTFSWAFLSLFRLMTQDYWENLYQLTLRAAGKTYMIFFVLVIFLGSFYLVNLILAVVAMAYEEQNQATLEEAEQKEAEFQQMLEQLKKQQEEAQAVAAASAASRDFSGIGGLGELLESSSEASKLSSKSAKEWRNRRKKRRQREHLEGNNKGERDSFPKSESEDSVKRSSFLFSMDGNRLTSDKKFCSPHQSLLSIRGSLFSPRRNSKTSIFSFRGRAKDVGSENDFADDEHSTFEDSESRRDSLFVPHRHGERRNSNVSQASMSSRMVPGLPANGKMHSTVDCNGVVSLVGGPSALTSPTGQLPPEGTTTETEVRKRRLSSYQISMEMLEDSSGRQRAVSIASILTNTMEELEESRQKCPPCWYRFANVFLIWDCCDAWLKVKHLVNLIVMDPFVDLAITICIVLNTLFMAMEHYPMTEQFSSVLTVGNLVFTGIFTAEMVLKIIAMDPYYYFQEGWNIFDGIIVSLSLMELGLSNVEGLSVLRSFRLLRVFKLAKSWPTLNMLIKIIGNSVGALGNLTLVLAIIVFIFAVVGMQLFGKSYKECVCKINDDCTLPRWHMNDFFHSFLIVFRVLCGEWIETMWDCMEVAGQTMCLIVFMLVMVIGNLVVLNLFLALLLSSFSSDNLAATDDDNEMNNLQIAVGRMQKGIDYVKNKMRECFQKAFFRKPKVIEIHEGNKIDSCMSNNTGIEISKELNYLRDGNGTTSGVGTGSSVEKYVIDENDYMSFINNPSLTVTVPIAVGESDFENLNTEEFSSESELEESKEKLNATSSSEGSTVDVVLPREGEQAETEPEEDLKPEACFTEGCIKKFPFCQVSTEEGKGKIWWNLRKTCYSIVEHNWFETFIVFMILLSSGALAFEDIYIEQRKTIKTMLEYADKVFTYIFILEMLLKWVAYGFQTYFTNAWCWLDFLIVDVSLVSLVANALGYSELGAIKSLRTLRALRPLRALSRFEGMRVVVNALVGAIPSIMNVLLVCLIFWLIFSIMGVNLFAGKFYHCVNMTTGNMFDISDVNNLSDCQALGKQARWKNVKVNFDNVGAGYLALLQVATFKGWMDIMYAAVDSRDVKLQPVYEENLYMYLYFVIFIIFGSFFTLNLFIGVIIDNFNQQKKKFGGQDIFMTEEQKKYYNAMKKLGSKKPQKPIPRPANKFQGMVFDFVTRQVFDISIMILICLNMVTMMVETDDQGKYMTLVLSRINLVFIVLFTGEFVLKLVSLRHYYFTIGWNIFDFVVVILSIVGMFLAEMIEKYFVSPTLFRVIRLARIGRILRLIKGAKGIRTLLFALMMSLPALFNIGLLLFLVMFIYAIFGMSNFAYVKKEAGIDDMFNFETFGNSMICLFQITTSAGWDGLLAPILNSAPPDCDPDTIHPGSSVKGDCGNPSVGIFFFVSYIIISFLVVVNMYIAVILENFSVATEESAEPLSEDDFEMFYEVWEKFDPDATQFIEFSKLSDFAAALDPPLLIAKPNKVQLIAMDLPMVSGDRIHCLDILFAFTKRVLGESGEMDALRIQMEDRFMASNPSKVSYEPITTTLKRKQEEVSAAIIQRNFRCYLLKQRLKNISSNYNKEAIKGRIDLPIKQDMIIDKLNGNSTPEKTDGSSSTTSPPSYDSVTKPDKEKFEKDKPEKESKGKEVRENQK
Method: (§2) HEK293 cells stably expressing hNav1.1-1.7 or CHO cells stably expressing hNav1.8 (as described in Example 3 above) were cultured in a T-175 flask in selection antibiotic-free media at 37° C. Cells were grown to 70-80% confluence and harvested using Detachin (Bio-Scientific, NSW, Australia) at 37° C. for 2 min. Dissociated cells were then resuspended in Ex-Cell ACF CHO Medium with HEPES (25 mM; Sigma-Aldrich Co.) and allowed to recover on the QStirrer for 30 min.
(§3) The extracellular solution contained in mM: NaCl 145, KCl 4, CaCl2 2, MgCl2 1, HEPES 10 and glucose 10. The pH was adjusted to 7.4 with NaOH and osmolarity was adjusted with sucrose to 305 mOsm. The intracellular solution contained in mM: CsF 140, ethylene glycol tetraacetic acid (EGTA)/CsOH 1/5, HEPES 10 and NaCl 10. The pH was adjusted to 7.3 with CsOH and osmolarity adjusted with sucrose to 320 mOsm. […]
(§4) The current-voltage (IV) curve was constructed with a holding potential of −80 mV followed by a pre-pulse of −100 mV for 50 ms and a series of 50 ms step pulses that ranged from −80 to 50 mV in 5 mV increments before returning to a holding potential of −80 mV. Voltage-dependence of activation was determined as normalized Nav conductance (GNa) using: GNa=INa/(Vmemb−Vrev), where Vmemb is the membrane potential and Vrev is the reversal potential for each cell. […]

hNav1.6 = biological target: T3, hNav1.6 (Homo sapiens, UniProt Q9UQD0); assay: FLIPR membrane potential assay, hNav1.6; assay type: cell-based
T3 construct: host or cells: HEK293
T3 sequence (Q9UQD0 whole entry): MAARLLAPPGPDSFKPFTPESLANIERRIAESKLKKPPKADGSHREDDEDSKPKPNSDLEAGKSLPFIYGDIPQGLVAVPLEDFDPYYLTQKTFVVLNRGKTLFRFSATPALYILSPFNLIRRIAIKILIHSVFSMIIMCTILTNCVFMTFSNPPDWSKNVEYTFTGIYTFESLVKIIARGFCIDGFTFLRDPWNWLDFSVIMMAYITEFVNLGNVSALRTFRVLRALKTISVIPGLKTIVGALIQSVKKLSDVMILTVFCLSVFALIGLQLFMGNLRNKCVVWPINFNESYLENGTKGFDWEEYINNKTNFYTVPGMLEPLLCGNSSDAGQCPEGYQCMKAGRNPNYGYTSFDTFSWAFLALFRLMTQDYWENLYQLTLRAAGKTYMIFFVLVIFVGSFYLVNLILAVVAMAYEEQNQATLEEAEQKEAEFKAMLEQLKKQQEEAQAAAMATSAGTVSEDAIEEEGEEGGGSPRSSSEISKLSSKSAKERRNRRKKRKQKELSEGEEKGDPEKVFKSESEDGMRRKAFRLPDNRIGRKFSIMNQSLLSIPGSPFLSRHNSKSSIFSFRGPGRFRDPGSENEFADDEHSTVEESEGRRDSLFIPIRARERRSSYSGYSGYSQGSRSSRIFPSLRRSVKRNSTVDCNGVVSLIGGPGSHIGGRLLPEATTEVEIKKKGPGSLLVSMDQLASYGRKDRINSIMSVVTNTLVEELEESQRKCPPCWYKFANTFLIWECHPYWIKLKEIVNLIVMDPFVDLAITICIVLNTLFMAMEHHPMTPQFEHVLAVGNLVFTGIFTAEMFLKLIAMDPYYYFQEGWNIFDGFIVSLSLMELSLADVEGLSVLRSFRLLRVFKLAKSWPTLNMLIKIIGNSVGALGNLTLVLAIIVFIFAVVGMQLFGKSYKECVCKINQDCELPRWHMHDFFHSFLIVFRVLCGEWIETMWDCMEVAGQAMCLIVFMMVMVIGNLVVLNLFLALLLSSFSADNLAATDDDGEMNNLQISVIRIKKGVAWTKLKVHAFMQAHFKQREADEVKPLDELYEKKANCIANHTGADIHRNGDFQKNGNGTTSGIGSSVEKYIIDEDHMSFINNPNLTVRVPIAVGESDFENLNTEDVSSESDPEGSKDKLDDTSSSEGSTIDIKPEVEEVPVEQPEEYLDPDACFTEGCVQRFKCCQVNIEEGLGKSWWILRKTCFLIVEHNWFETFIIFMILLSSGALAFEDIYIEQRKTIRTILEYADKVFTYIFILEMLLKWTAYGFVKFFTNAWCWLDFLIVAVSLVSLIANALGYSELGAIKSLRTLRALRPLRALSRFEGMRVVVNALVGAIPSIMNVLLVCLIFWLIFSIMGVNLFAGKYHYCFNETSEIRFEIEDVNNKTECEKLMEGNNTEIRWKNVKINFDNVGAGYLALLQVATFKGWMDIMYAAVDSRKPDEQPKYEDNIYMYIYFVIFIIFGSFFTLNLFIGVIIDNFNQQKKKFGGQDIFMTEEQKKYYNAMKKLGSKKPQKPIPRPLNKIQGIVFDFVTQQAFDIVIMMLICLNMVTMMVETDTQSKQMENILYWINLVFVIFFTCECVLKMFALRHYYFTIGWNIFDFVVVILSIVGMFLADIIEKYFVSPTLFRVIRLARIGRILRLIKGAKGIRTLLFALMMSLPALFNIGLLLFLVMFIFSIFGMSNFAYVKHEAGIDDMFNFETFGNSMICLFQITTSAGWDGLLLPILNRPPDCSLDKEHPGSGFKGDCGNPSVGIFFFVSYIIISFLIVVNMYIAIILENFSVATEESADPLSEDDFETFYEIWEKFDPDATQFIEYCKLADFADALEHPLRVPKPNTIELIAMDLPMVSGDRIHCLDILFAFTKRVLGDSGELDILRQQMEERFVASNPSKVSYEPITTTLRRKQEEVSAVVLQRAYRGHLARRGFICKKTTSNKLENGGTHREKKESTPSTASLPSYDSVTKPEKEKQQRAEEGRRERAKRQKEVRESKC
Summary of the method: as §1

[1] = tested on: post-operative pain in mice; assay: Post-operative pain (plantar incision); assay type: in vivo; conditions: 24 h after incision
Method: For behavioural assessment adult male C57BL/6J mice aged 6-8 weeks were used. Animals were housed in groups of 3 or 4 per cage, under 12 h light-dark cycles and had standard rodent chow and water ad libitum.
Mechanical allodynia was assessed using an electronic von Frey apparatus (MouseMet Electronic von Frey, TopCat Metrology Ltd, United Kingdom). Mice were habituated in individual mouse runs for at least 5 min prior to testing. A soft-tipped 0.3 mm diameter flat-ended polypropylene probe was applied to the plantar surface of each hind paw with pressured applied at a force rise rate of ˜1 g/s. The force that elicited paw withdrawal was calculated using the MouseMet Software. The paw withdrawal force (PWF) was determined from the average of three tests, separated by at least 2 min.
To induce post-operative (post-surgical) pain, the plantar skin of the hind paw of mice was incised under light isoflurane (3%) anaesthesia. Briefly, a 7 mm longitudinal incision was made through the skin and fascia 3 mm from the proximal edge of the heel using a sterile surgical scalpel (#11). The underlying plantaris muscle was elevated and also incised longitudinally. The wound was closed with two silk sutures. Mechanical allodynia was assessed 24 h after the incisional injury.

hNav1.2 = biological target: T4, hNav1.2 (Homo sapiens, UniProt Q99250); assay: FLIPR membrane potential assay, hNav1.2; assay type: cell-based
T4 construct: host or cells: HEK293
Summary of the method: as §1

hNav1.1 [2] = biological target: T5, hNav1.1 (Homo sapiens, UniProt P35498); assay: FLIPR membrane potential assay, hNav1.1; assay type: cell-based
T5 construct: host or cells: HEK293
Summary of the method: as §1

[3] = Stability of Pnc1a in solutions (RP-HPLC/MS); assay type: physicochemical; conditions: room temperature
hNav1.1 [4] = biological target: T5, hNav1.1; assay: Automated patch clamping (QPatch-16), hNav1.1; assay type: cell-based; conditions: mean±SEM
Method: as §2, §3, §4

hNav1.4 = biological target: T6, hNav1.4 (Homo sapiens, UniProt P35499); assay: FLIPR membrane potential assay, hNav1.4; assay type: cell-based
T6 construct: host or cells: HEK293
Summary of the method: as §1

## CSCC[C@@H]1NC(=O)[C@H](Cc2ccc(O)cc2)NC(=O)[C@H](CCCNC(=N)N)NC(=O)[C@@H](NC(=O)[C@@H](N)CC(=O)O)CSSC[C@@H]2NC(=O)[C@@H]3CSSC[C@@H](C(=O)N[C@@H](C)C(=O)N[C@@H](Cc4c[nH]c5ccccc45)C(=O)N[C@@H](CC(=O)O)C(=O)N[C@@H](Cc4ccccc4)C(=O)N[C@H](C(=O)N[C@@H](Cc4ccccc4)C(=O)N[C@H](C(=O)O)[C@@H](C)O)[C@@H](C)O)NC(=O)[C@H](Cc4ccc(O)cc4)NC(=O)[C@H](CCCCN)NC(=O)[C@H](CCSC)NC(=O)[C@H](CCCCN)NC(=O)[C@H](CCCNC(=N)N)NC(=O)[C@H](CCCCN)NC(=O)[C@H](CSSC[C@H](NC(=O)[C@H](CC(=O)O)NC(=O)CNC(=O)[C@H](Cc4ccccc4)NC1=O)C(=O)N[C@@H](CCC(=O)O)C(=O)N[C@@H](CCCCN)C(=O)N[C@@H](CC(=O)O)C(=O)N[C@@H](CCC(=O)O)C(=O)N[C@@H](CC(=O)O)C(=O)N3)NC(=O)CNC(=O)[C@H](CC(C)C)NC(=O)[C@H](Cc1cnc[nH]1)NC(=O)[C@H](CCCCN)NC2=O [Pnc1a]
hNav1.5
  IC50: 85.1 µM
hNav1.3
  pIC50 Nav1.3: 6.68±0.1 M
hNav1.6
  IC50: 18.6 µM
[1]; intraperitoneal 3 mg/kg
  mechanical threshold of the injured paw compared to vehicle: significantly increased
[1]; intraplantar 3 μM
  mechanical threshold of the injured paw compared to vehicle: significantly increased
hNav1.2
  IC50: 2.95 µM
hNav1.1 [2]
  IC50: 13.2 µM
[3]; PBS pH 6.5, 100 μM
  time after which no intact peptide remained: 12 days
[3]; PBS/saline pH 5.7, 100 μM
  time after which no intact peptide remained: 25 days
[3]; bicarbonate buffered saline pH 5.7, 100 μM
  stability over the 25 day period: remained intact
[3]; bicarbonate buffered saline pH 7.1, 100 μM
  stability over the 25 day period: remained intact
[3]; saline pH 3, 100 μM
  stability over the 25 day period: remained intact
hNav1.1 [4]
  pIC50 Nav1.1: 7.43±0.1 M
hNav1.4
  IC50: 11.2 µM
